Results: patent publication US20240124491A1, “METHODS AND COMPOUNDS FOR TREATING FRIEDREICH'S ATAXIA” (Design Therapeutics, Inc., priority 2021, published 2024)

Each compound was assayed on human FXN (assay: EC50 assay: FXN mRNA expression by qRT-PCR in GM15850 cells after 48 hrs compound treatment). Conditions: Homo sapiens, 48 hrs incubation, hFXN expression normalized to hGAPDH (qRT-PCR), read-out: EC50 WT (nM, 48 hr).
Format: cell-based
Outline: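 FXN transcript, normalized to GAPDH by TaqMan qRT-PCR, read out after 48 hrs of compound on GM15850 cells plated at 150,000 per well. Dosing used five 3-fold steps from 150 nM final, vehicle 0.01% DMSO.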

Compound | EC50
Cc1cc(F)cc(C)c1Oc1ccc(C(C)(C)O)cc1-c1cn(C)c(=O)c2[nH]c(C(=O)Nc3ccc(OCCOCCOCCOCCOCCOCCOCCOCCOCCNC(=O)CCNC(=O)c4nc(NC(=O)CCNC(=O)c5cc(NC(=O)c6nc(NC(=O)CCN)cn6C)cn5C)cn4C)cc3)cc12 [Compound 199, 4-(3-aminopropanamido)-N-(5-{[2-({2-[(2-{[26-(4-{4-[2-(4-fluoro-2,6-dimethylphenoxy)-5-(2-hydroxypropan-2-yl)phenyl]-6-methyl-7-oxo-1H-pyrrolo[2,3-c]pyridine-2-amido}phenoxy)-3,6,9,12,15,18,21,24-octaoxahexacosan-1-yl]carbamoyl}ethyl)carbamoyl]-1-methylimidazol-4-yl}carbamoyl)ethyl]carbamoyl}-1-methylpyrrol-3-yl)-1-methylimidazole-2-carboxamide] | > 500 nM
Cc1sc2c(c1C)C(c1ccc(NC(=O)CCCCCCCCCCCCCCCNCCc3c[nH]c4ccccc34)cc1)=N[C@@H](CC(=O)Nc1ccc(OCCOCCOCCOCCOCCOCCOCCOCCOCCNC(=O)CCNC(=O)c3nc(NC(=O)CCNC(=O)c4cc(NC(=O)c5nc(NC(=O)CCNC(=O)c6cc(NC(=O)c7nccn7C)cn6C)cn5C)cn4C)cn3C)cc1)c1nnc(C)n1-2 [Compound 200] | > 500 nM
CCCCCCCC(=O)N(CC#CC#Cc1ccc(NC(=O)C[C@@H]2N=C(c3ccc(Cl)cc3)c3c(sc(C)c3C)-n3c(C)nnc32)cc1)CCOCCOCCOCCOCCOCCNC(=O)CCNC(=O)c1nc(NC(=O)CCNC(=O)c2cc(NC(=O)c3nc(NC(=O)CCNC(=O)c4cc(NC(=O)c5nccn5C)cn4C)cn3C)cn2C)cn1C [Compound 201] | > 500 nM
CCCCCCCC(=O)Nc1ccc(C2=N[C@@H](CC(=O)Nc3ccc(OCCOCCOCCOCCOCCOCCOCCOCCOCCNC(=O)CCNC(=O)c4nc(NC(=O)CCNC(=O)c5cc(NC(=O)c6nc(NC(=O)CCNC(=O)c7cc(NC(=O)c8nccn8C)cn7C)cn6C)cn5C)cn4C)cc3)c3nnc(C)n3-c3sc(C)c(C)c32)cc1 [Compound 203] | 100 to 500 nM
CCCCCCCCCCCCCCCC(=O)Nc1ccc(C2=N[C@@H](CC(=O)Nc3ccc(OCCOCCOCCOCCOCCOCCOCCOCCOCCNC(=O)CCNC(=O)c4nc(NC(=O)CCNC(=O)c5cc(NC(=O)c6nc(NC(=O)CCNC(=O)c7cc(NC(=O)c8nccn8C)cn7C)cn6C)cn5C)cn4C)cc3)c3nnc(C)n3-c3sc(C)c(C)c32)cc1 [Compound 204] | > 500 nM
Cc1cc(F)cc(C)c1Oc1ccc(C(C)(C)O)cc1-c1cn(C)c(=O)c2[nH]c(C(=O)Nc3ccc(OCCOCCOCCOCCOCCOCCOCCOCCNC(=O)CCNC(=O)c4nc(NC(=O)CCNC(=O)c5cc(NC(=O)c6nc(NC(=O)CCNC(=O)c7cc(NC(=O)c8nccn8C)cn7C)cn6C)cn5C)cn4C)cc3)cc12 [Compound 205, N-(5-{[2-({2-[(2-{[23-(4-{4-[2-(4-fluoro-2,6-dimethylphenoxy)-5-(2-hydroxypropan-2-yl)phenyl]-6-methyl-7-oxo-1H-pyrrolo[2,3-c]pyridine-2-amido}phenoxy)-3,6,9,12,15,18,21-heptaoxatricosan-1-yl]carbamoyl}ethyl)carbamoyl]-1-methylimidazol-4-yl}carbamoyl)ethyl]carbamoyl}-1-methylpyrrol-3-yl)-1-methyl-4-(3-{[1-methyl-4-(1-methylimidazole-2-amido)pyrrol-2-yl]formamido}propanamido)imidazole-2-carboxamide] | < 100 nM
Cn1cc(NC(=O)c2nc(NC(=O)CCNC(=O)c3cc(NC(=O)c4nccn4C)cn3C)cn2C)cc1C(=O)NCCC(=O)Nc1cn(C)c(C(=O)NCCC(=O)NCCOCCOCCOCCOCCOCCOCCOCCOCCOc2ccc(NC(=O)c3cc4c(-c5cc(S(C)(=O)=O)ccc5Oc5ccc(F)cc5F)cn(C)c(=O)c4[nH]3)cc2)n1 [Compound 207, N-(5-{[2-({2-[(2-{[26-(4-{14-[2-(2,4-difluorophenoxy)-5-methanesulfonylphenyl]-6-methyl-7-oxo-1H-pyrrolo[2,3-c]pyridine-2-amido}phenoxy)-3,6,9,12,15,18,21,24-octaoxahexacosan-1-yl]carbamoyl]ethyl)carbamoyl]-1-methylimidazol-4-yl}carbamoyl)ethyl]carbamoyl}-1-methylpyrrol-3-yl)-1-methyl-4-(3-{[1-methyl-4-(1-methylimidazole-2-amido)pyrrol-2-yl]formamido]propanamido)imidazole-2-carboxamide] | < 100 nM
COCCOCCOCCOCCOCCOCCOc1cc(NC(=O)C[C@@H]2N=C(c3ccc(Cl)cc3)c3c(sc(C)c3C)-n3c(C)nnc32)ccc1OCCOCCOCCOCCOCCOCCOCCOCCOCCNC(=O)CCNC(=O)c1nc(NC(=O)CCNC(=O)c2cc(NC(=O)c3nc(NC(=O)CCNC(=O)c4cc(NC(=O)c5nccn5C)cn4C)cn3C)cn2C)cn1C [Compound 211] | 100 to 500 nM
Cc1cc(F)cc(C)c1Oc1ccc(C(C)(C)O)cc1-c1cn(C)c(=O)c2[nH]c(C(=O)Nc3ccc(OCCOCCOCCOCCOCCOCCOCCOCCOCCNC(=O)c4cc(NC(=O)c5nc(NC(=O)c6cc(NC(=O)c7ccc8nc(-c9nccn9C)[nH]c8c7)cn6C)cn5C)cn4C)cc3)cc12 [Compound 215, N-[5-({2-[(5-{[26-(4-{4-[2-(4-fluoro-2,6-dimethylphenoxy)-5-(2-hydroxypropan-2-yl)phenyl]-6-methyl-7-oxo-1H-pyrrolo[2,3-c]pyridine-2-amido}phenoxy)-3,6,9,12,15,18,21,24-octaoxahexacosan-1-yl]carbamoyl}-1-methylpyrrol-3-yl)carbamoyl]-1-methylimidazol-4-yl]carbamoyl)-1-methylpyrrol-3-yl]-2-(1-methylimidazol-2-yl)-3H-1,3-benzodiazole-5-carboxamide] | > 500 nM
Cc1cc(F)cc(C)c1Oc1ccc(C(C)(C)O)cc1-c1cn(C)c(=O)c2[nH]c(C(=O)Nc3ccc(OCCOCCOCCOCCOCCOCCOCCOCCn4cc(CNC(=O)c5nc(NC(=O)CCNC(=O)c6cc(NC(=O)c7nc(NC(=O)CCNC(=O)c8cc(NC(=O)c9nccn9C)cn8C)cn7C)cn6C)cn5C)nn4)cc3)cc12 [Compound 217, N-({1-[23-(4-{4-[2-(4-fluoro-2,6-dimethylphenoxy)-5-(2-hydroxypropan-2-yl)phenyl]-6-methyl-7-oxo-1H-pyrrolo[2,3-c]pyridine-2-amido}phenoxy)-3,6,9,12,15,18,21-heptaoxatricosan-1-yl]-1,2,3-triazol-4-yl}methyl)-1-methyl-4-[3-({1-methyl-4-[1-methyl-4-(3-{[1-methyl-4-(1-methylimidazole-2-amido)pyrrol-2-yl]formamido}propanamido)imidazole-2-amido]pyrrol-2-yl}formamido)propanamido]imidazole-2-carboxamide] | < 100 nM
Cc1cc(F)cc(C)c1Oc1ccc(C(C)(C)O)cc1-c1cn(C)c(=O)c2[nH]c(C(=O)Nc3ccc(OCCOCCOCCOCCOCCOCCOCCOCCOCCNC(=O)CCNC(=O)c4nc(NC(=O)CCNC(=O)c5cc(NC(=O)c6nc(NC(=O)CCNC(=O)c7cc(NC(=O)c8nccn8C)c[nH]7)cn6C)c[nH]5)cn4C)cc3)cc12 [Compound 224, N-(5-{[2-({2-[(2-{[26-(4-{4-[2-(4-fluoro-2,6-dimethylphenoxy)-5-(2-hydroxypropan-2-yl)phenyl]-6-methyl-7-oxo-1H-pyrrolo[2,3-c]pyridine-2-amido}phenoxy)-3,6,9,12,15,18,21,24-octaoxahexacosan-1-yl]carbamoyl]ethyl)carbamoyl]-1-methylimidazol-4-yl]carbamoyl)ethyl]carbamoyl]-1H-pyrrol-3-yl)-1-methyl-4-(3-{[4-(1-methylimidazole-2-amido)-1H-pyrrol-2-yl]formamido]propanamido)imidazole-2-carboxamide] | < 100 nM
Cc1sc2c(c1C)C(c1ccc(Cl)cc1)=N[C@@H](CC(=O)Nc1ccc(OCCOCCOCCOCCOCCOCCOCCOCCOCCNC(=O)CCNC(=O)CCNC(=O)c3nc(NC(=O)CCNC(=O)c4cc(NC(=O)c5nc(NC(=O)CCNC(=O)c6cc(NC(=O)c7nccn7C)cn6C)cn5C)cn4C)cn3C)cc1)c1nnc(C)n1-2 [Compound 229] | < 100 nM
Cc1sc2c(c1C)C(c1ccc(Cl)cc1)=N[C@H](CC(=O)Nc1ccc(OCCOCCOCCOCCOCCOCCOCCOCCOCCNC(=O)CCNC(=O)c3nc(NC(=O)CCNC(=O)c4cc(NC(=O)c5nc(NC(=O)CCNC(=O)c6cc(NC(=O)c7nccn7C)cn6C)cn5C)cn4C)cn3C)cc1)c1nnc(C)n1-2 [Compound 231] | < 100 nM
Cc1cc(F)cc(C)c1Oc1ccc(C(C)(C)O)cc1-c1cn(C)c(=O)c2[nH]c(C(=O)Nc3ccc(OCCOCCOCCOCCOCCOCCOCCOCCOCCNC(=O)CCNC(=O)c4nc(NC(=O)CCNC(=O)c5cc(NC(=O)c6nc(NC(=O)CCNC(=O)c7cc(NC(=O)c8nccn8C)cn7C)cn6C)cn5C)cn4C)c(OC(=O)c4cc5c(-c6cc(C(C)(C)O)ccc6Oc6c(C)cc(F)cc6C)cn(C)c(=O)c5[nH]4)c3)cc12 [Compound 240] | < 100 nM
COCCOCCOCCOCCN(CCCCCn1cc(NC(=O)c2nc(NC(=O)CCNC(=O)c3cc(NC(=O)c4nccn4C)cn3C)cn2C)cc1C(=O)NCCC(=O)Nc1cn(C)c(C(=O)NCCC(=O)NCCOCCOCCOCCOCCOCCOCCOCCOCCOc2ccc(NC(=O)c3cc4c(-c5cc(C(C)(C)O)ccc5Oc5c(C)cc(F)cc5C)cn(C)c(=O)c4[nH]3)cc2)n1)CCOCCOCCOCCOC [Compound 241] | > 500 nM
COCCOCCOCCOCCOCCOCCOCCOCCN(CCCCCn1cc(NC(=O)c2nc(NC(=O)CCNC(=O)c3cc(NC(=O)c4nccn4C)cn3C)cn2C)cc1C(=O)NCCC(=O)Nc1cn(C)c(C(=O)NCCC(=O)NCCOCCOCCOCCOCCOCCOCCOCCOCCOc2ccc(NC(=O)c3cc4c(-c5cc(C(C)(C)O)ccc5Oc5c(C)cc(F)cc5C)cn(C)c(=O)c4[nH]3)cc2)n1)CCOCCOCCOCCOCCOCCOCCOCCOC [Compound 242] | < 100 nM
